# Data reported in patent publication US20100028259A1, “USE OF ORGANIC CATION TRANSPORTERS FOR CANCER DIAGNOSIS AND THERAPY” (The Regents of the University of California, priority 2006, published 2010).
# Experiments:
# [1] = molecular target: T1, human OCT1 (Homo sapiens, UniProt O15245); test: Cellular uptake of TEA in MDCK-hOCT1 cells, OCT inhibitor; assay type: cell-based, canine; conditions: inhibitor 120 μM
# T1 construct: stably transfected with the full length human OCT1 cDNA (MDCK-hOCT1); expressed in transfected cells
# T1 sequence (O15245 1-554): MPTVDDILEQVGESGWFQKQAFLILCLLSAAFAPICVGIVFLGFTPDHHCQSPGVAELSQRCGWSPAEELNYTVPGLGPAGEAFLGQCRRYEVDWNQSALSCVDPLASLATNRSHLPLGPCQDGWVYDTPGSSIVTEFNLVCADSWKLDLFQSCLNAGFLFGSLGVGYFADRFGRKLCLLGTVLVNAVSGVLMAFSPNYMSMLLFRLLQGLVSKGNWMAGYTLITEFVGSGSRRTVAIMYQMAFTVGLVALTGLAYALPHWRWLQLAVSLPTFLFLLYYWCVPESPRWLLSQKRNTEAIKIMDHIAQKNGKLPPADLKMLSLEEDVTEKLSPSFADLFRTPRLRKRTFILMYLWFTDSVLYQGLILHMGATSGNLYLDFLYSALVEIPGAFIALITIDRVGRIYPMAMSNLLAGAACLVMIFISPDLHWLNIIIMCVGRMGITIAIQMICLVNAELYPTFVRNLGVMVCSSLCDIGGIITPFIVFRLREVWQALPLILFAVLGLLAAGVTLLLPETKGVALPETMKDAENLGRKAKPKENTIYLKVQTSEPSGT
# Protocol: (§1) (A) The expression of human OCT1, OCT2, or OCT3 was determined in the cell lines stably transfected with human OCTs (MDCK-hOCT1, HEK-hOCT2, or HEK-hOCT3) or the corresponding empty vectors (MOCK cells) by RT-PCR as described in Example 1. The dog and human GAPDH were used as the expression control for the transfected MDCK and HEK 293 cells, respectively. Lanes 1-6: MDCK-MOCK, MDCK-hOCT1, HEK-MOCK, HEK-hOCT2, HEK-MOCK, and HEK-hOCT3. (B) The cellular uptake of model substrates (TEA for human OCT1 and OCT2; MPP^+ for human OCT3) was determined in OCT-transfected cells (solid bars) and in the corresponding MOCK cells (open bars). Disopyramide (120 μM) was used as an inhibitor for human OCT1 and cimetidine (1.5 mM) was used as an inhibitor for human OCT2 and OCT3. Data are expressed as mean±SD of six measurements.
# (§2) MDCK or HEK 293 cells were grown in 24-well plates to >90% confluence in the culture medium without any antibiotics. The poly-D-lysine coated plates were used for HEK 293 cells. The cells were washed with 1×PBS first and then incubated in the uptake buffer (1×PBS) containing 10 μM ^14C-TEA or 2 μM ^3H-MPP^+ as specified. For the OCT inhibitor studies, the indicated OCT inhibitor (i.e., disopyramide or cimetidine) was added to the uptake buffer at specified concentration together with the radioactive substrate. […]
# [2] = test system: MDCK-hOCT1 cells; test: MTT drug sensitivity assay in MDCK-hOCT1 cells; assay type: cell-based, canine; conditions: same test conditions as oxaliplatin MTT assay in MDCK cells
# Protocol: (§3) Cytotoxicity of the platinum-based compounds was measured by MTT (thiazolyl blue tetrazolium bromide) assay. Cells were seeded in 100 μl of the culture medium without any antibiotics in 96-well plates at a predetermined cell density. For HEK 293 cells, poly-D-lysine coated plates were used. […] For the OCT inhibitor studies, the inhibitors (i.e., disopyramide or cimetidine) were added to the medium at a specified concentration immediately before the addition of the platinum-based compounds. After incubation for a specified time period, the drug-containing medium was replaced with fresh, drug-free medium and the incubation was continued for a total of 72 hours (start from the addition of platinum-based compounds). Then, the MTT assay was performed similarly as described in Alley et al., Cancer Res., 48:589-601 (1988). […] The maximal cell growth was the cell growth in the medium without any platinum-based compounds; C is the concentration of the platinum-based compound, and γ is the slope factor.
# (§4) Briefly, the cells were seeded in 96-well plates at a density of 5,000 cells/well for the transfected MDCK cells or 12,000 cells/well for the transfected HEK 293 cells. The platinum-based drugs were added on the following day. After the specified time periods of drug exposure, the drug-containing medium was replaced with fresh, drug-free medium, and the incubation was continued for a total of 72 hours (start from the time when the drug was added). After incubation, the cell growth was determined by an MTT assay. Data are expressed as mean±SD from 3 to 6 independent experiments with each performed in quadruplicate. The resistance factor (RF) was defined as the ratio of the mean IC50 value in the MOCK cells to that in the OCT-transfected cells.
# Briefly, MDCK cells were seeded at a density of 5,000 cells/well in 96-well plates and exposed to the test compounds for 7 hours on the following day. After incubation for a total of 72 hours, the cell growth was determined by an MTT assay. The data for carboplatin was taken from Table 1 and was not determined simultaneously with the other compounds. The resistance factor (RF) was defined as the ratio of the mean IC50 value in MDCK-MOCK cells to that in MDCK-hOCT1 cells. Data are expressed as mean±SD from six measurements, and each measurement was performed in quadruplicate.
# [3] = molecular target: human OCT3 (Homo sapiens, UniProt O75751); conditions: inhibitor 1.5 mM
# human OCT3, sequence (O75751 whole entry): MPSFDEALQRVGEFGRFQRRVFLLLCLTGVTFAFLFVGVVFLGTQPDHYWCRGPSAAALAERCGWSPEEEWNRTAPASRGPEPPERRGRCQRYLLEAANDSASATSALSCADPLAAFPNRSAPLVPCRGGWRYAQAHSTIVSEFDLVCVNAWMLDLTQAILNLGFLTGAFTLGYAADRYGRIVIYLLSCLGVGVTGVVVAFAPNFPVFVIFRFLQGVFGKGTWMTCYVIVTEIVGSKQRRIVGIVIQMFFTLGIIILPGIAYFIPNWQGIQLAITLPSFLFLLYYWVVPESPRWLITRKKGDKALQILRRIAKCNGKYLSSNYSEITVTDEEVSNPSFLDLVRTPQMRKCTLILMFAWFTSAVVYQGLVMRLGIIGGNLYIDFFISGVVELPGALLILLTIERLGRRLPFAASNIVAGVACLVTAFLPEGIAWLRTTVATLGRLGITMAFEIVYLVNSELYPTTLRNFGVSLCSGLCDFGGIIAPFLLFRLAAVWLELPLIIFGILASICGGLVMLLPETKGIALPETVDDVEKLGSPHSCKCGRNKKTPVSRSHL
# Protocol: as §1, §2
# [4] = molecular target: human OCT2 (Homo sapiens, UniProt O15244); conditions: inhibitor 1.5 mM
# human OCT2, sequence (O15244 whole entry): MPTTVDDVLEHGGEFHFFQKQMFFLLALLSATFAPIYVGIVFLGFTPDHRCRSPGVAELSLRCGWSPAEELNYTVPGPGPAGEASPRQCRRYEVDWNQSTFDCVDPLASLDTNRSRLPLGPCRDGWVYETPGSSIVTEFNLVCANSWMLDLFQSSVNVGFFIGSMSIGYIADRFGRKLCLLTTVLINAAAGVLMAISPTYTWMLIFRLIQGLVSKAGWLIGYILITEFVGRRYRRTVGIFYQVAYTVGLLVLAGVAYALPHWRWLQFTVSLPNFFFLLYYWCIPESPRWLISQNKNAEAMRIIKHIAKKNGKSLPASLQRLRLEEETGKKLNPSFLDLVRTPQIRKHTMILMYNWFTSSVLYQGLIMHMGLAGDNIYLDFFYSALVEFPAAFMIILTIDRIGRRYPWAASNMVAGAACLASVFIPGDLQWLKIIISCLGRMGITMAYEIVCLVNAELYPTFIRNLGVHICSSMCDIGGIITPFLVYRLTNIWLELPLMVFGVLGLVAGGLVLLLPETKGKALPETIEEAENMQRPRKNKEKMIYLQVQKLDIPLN
# Protocol: as §1, §2
# [5] = test system: HEK-hOCT2 cells; test: MTT drug sensitivity assay in HEK-hOCT2 cells; assay type: cell-based, human; conditions: same test conditions as oxaliplatin MTT assay in HEK cells
# Protocol: as §3, §4
compound,measurement,setting,value
CC(C)N(CCC(C(N)=O)(c1ccccc1)c1ccccn1)C(C)C (centres unmarked) [disopyramide],effect on uptake of TEA in MDCK-hOCT1,[1],substantially decreased
same,cytotoxicity of the OCT inhibitor itself (no cytotoxicity up to a concentration of),[2],> 400 µM
CN/C(=N/CCSCc1nc[nH]c1C)NC#N [cimetidine],effect on uptake of MPP+ in HEK-hOCT3,[3],substantially decreased
same,effect on uptake of TEA in HEK-hOCT2,[4],substantially decreased
same,cytotoxicity of the OCT inhibitor itself (no cytotoxicity up to a concentration of),[5],> 5 mM
